Experimental data taken from patent publication US20160229835A1, “NOVEL PYRIDYLOXYACETYL TETRAHYDROISOQUINOLINE COMPOUNDS USEFUL AS NAMPT INHIBITORS” (ELI LILLY AND COMPANY, priority 2013, published 2016).
Like-named read-outs stand apart in the source and are kept apart here.

How the values were obtained:
Assay type in all cases: cell-based
CHP-212 = assay: Cell Proliferation Assay ±NA, CHP-212; settings: Homo sapiens, CHP-212, autonomic ganglia, treatment time 72 hr
Protocol: (§1) The purpose of this assay is to measure the ability of a compound to inhibit proliferation of endometrium, kidney, adrenal gland, and autonomic ganglia cancer cell lines dependent on the NAMPT-mediated NAD^+ formation in the presence or absence of NA (10 μM) in vitro. One day before the planned initiation of compound treatment portion of the assay, one vial of assay ready frozen cells is thawed, and the cells are grown overnight in the media as shown in Table 3 under 5% CO2 at 37° C. Then, the cell layer is briefly rinsed with 0.25% (w/v) Trypsin-0.038% (w/v) EDTA solution followed with the addition of 3.0 ml of Trypsin-EDTA solution. Once the cell layer is dispersed, 8.0 ml of complete growth medium (Table 3) is added and cells are aspirated by gently pipetting. The cell suspension is transferred to a centrifuge tube and centrifuged at 800-1000 rpm for 3-5 minutes. The supernatant is discarded using a vacuum pump. The cell pellet is suspended in a complete medium by gently pipetting. The cell numbers are counted and adjusted to the appropriate density (Table 3). […] The bottom of each plate is pasted with a white back seal and luminescence is recorded using a Flexstation 3 with the following settings: Luminescence and integration time of 500 ms.

TGW = assay: Cell Proliferation Assay ±NA, TGW; settings: autonomic ganglia, treatment time 48 hr
Protocol: as §1

GOTO = assay: Cell Proliferation Assay ±NA, GOTO; settings: autonomic ganglia, treatment time 96 hr
Protocol: as §1

SNG-M = assay: Cell Proliferation Assay ±NA, SNG-M; settings: endometrium, treatment time 72 hr
Protocol: as §1

AN3-CA = assay: Cell Proliferation Assay ±NA, AN3-CA; settings: Homo sapiens, endometrium, treatment time 72 hr
Protocol: as §1

KLE = assay: Cell Proliferation Assay ±NA, KLE; settings: Homo sapiens, endometrium, treatment time 72 hr
Protocol: as §1

COLO-684 = assay: Cell Proliferation Assay ±NA, COLO-684; settings: Homo sapiens, COLO-684, endometrium, treatment time 72 hr
Protocol: as §1

RL95-2 = assay: Cell Proliferation Assay ±NA, RL95-2; settings: Homo sapiens, RL95-2, endometrium, treatment time 72 hr
Protocol: as §1

OS-RC-2 = assay: Cell Proliferation Assay ±NA, OS-RC-2; settings: Homo sapiens, OS-RC-2, kidney, treatment time 72 hr
Protocol: as §1

SN12C = assay: Cell Proliferation Assay ±NA, SN12C; settings: Homo sapiens, kidney, treatment time 72 hr
Protocol: as §1

786-0 = assay: Cell Proliferation Assay ±NA, 786-0; settings: Homo sapiens, 786-0, kidney, treatment time 48 hr
Protocol: as §1

Caki-1 = assay: Cell Proliferation Assay ±NA, Caki-1; settings: Homo sapiens, Caki-1, kidney, treatment time 72 hr
Protocol: as §1

TK10 = assay: Cell Proliferation Assay ±NA, TK10; settings: Homo sapiens, TK-10, TK10, kidney, treatment time 72 hr
Protocol: as §1

ACHN = assay: Cell Proliferation Assay ±NA, ACHN; settings: Homo sapiens, kidney, treatment time 72 hr
Protocol: as §1

U031 = assay: Cell Proliferation Assay ±NA, U031; settings: U031, kidney, treatment time 72 hr
Protocol: as §1

[1] = NA 0.0 μM, read-out: IC50 (μM) NA (0.0 μM)
[2] = NA 10 μM, read-out: IC50 (μM) NA (10 μM)

CC(C)(O)CS(=O)(=O)Nc1ccc2c(c1)CCN(C(=O)COc1cccnc1)C2 [Example 1, 2-Hydroxy-2-methyl-N-[2-[2-(3-pyridyloxy)acetyl]-3,4-dihydro-1H-isoquinolin-6-yl]propane-1-sulfonamide]
IC50 (CHP-212; [1]): 0.07 µM
IC50 (CHP-212; [2]): 0.07 µM
IC50 (TGW; [1]): 0.01 µM
IC50 (TGW; [2]): 0.01 µM
IC50 (GOTO; [1]): 0.02 µM
IC50 (GOTO; [2]): 0.02 µM
IC50 (SNG-M; [1]): 0.02 µM
IC50 (SNG-M; [2]): 0.02 µM
IC50 (AN3-CA; [1]): 0.02 µM
IC50 (AN3-CA; [2]): 0.02 µM
IC50 (KLE; [1]): 0.04 µM
IC50 (KLE; [2]): > 2 µM
IC50 (COLO-684; [1]): 0.03 µM
IC50 (COLO-684; [2]): > 2 µM
IC50 (RL95-2; [1]): 0.02 µM
IC50 (RL95-2; [2]): 0.02 µM
IC50 (OS-RC-2; [1]): > 2 µM
IC50 (OS-RC-2; [2]): > 2 µM
IC50 (SN12C; [1]): 0.06 µM
IC50 (SN12C; [2]): 0.05 µM
IC50 (786-0; [1]): 0.07 µM
IC50 (786-0; [2]): 0.04 µM
IC50 (Caki-1; [1]): 0.13 µM
IC50 (Caki-1; [2]): 0.11 µM
IC50 (TK10; [1]): 0.22 µM
IC50 (TK10; [2]): 0.21 µM
IC50 (ACHN; [1]): 0.11 µM
IC50 (ACHN; [2]): > 2 µM
IC50 (U031; [1]): 0.06 µM
IC50 (U031; [2]): 0.06 µM
